In assay [1] the target is 5-hydroxytryptamine receptor 2A (Homo sapiens, UniProt P28223). The assay is classed as functional, cell-based.
Assay [2] has as its target Beta-2 adrenergic receptor (Homo sapiens, UniProt P07550). The assay is classed as functional, cell-based.
The target of assay [3] is T1, Alpha-1A adrenergic receptor (Homo sapiens, UniProt P35348).
T1 sequence (P35348 whole entry): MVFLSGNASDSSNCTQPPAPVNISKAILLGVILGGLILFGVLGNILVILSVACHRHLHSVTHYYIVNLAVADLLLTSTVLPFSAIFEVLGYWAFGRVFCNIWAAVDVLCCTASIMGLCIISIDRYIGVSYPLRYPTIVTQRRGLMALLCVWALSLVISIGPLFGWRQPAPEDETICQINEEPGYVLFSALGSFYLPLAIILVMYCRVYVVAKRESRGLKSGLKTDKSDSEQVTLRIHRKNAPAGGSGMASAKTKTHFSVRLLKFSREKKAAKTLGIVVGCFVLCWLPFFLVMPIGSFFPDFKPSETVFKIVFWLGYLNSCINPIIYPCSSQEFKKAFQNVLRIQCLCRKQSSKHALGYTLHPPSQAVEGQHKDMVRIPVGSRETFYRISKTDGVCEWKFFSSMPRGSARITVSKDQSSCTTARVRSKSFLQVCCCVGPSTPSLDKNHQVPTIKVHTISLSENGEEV

Assay [4] has as its target Beta-1 adrenergic receptor (Homo sapiens, UniProt P08588). The assay is classed as functional.
Another assay deals with T2, Glucocorticoid receptor (Homo sapiens, UniProt P04150).
T2 sequence (P04150 whole entry): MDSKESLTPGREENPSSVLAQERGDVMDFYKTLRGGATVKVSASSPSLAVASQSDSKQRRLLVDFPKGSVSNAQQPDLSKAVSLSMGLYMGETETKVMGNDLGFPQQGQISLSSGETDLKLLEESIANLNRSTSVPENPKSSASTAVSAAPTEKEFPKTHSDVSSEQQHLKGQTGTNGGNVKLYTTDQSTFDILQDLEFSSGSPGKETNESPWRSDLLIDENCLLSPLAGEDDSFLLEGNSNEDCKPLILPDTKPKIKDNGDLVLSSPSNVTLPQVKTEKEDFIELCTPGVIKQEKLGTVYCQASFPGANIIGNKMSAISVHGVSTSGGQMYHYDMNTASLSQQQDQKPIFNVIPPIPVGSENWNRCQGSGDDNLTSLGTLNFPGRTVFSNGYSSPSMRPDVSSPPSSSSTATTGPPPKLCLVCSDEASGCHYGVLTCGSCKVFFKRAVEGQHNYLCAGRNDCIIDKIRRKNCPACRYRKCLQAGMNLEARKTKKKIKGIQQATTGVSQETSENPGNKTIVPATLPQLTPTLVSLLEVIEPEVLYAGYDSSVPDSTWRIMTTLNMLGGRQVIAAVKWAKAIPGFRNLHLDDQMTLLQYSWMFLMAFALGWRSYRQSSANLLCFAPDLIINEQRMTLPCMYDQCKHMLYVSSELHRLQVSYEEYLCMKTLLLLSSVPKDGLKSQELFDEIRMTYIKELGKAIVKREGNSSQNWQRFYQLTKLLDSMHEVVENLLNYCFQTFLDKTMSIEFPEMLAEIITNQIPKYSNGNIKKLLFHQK

A further assay concerns the target Motilin receptor (Homo sapiens, UniProt O43193).
The target in the next assay is T3, Estrogen receptor (Homo sapiens, UniProt P03372).
T3 sequence (P03372 whole entry): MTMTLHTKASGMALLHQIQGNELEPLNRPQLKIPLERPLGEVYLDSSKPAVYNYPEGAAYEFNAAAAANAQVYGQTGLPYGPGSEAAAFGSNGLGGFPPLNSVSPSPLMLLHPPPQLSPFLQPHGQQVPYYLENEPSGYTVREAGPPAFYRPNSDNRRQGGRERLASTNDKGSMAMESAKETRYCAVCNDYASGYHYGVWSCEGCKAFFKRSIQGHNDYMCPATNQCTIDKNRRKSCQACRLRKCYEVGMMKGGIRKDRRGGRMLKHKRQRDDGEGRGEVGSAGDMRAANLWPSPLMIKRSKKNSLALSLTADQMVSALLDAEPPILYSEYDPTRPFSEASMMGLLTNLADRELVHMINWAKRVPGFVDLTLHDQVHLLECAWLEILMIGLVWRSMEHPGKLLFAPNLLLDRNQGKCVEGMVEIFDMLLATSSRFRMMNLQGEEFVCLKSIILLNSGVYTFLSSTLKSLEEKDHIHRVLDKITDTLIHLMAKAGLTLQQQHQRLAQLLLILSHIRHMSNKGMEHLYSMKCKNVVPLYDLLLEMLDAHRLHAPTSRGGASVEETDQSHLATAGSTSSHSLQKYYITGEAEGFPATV

The target of assay [5] is T4, Equilibrative nucleoside transporter 1 (Homo sapiens, UniProt Q99808).
T4 sequence (Q99808 whole entry): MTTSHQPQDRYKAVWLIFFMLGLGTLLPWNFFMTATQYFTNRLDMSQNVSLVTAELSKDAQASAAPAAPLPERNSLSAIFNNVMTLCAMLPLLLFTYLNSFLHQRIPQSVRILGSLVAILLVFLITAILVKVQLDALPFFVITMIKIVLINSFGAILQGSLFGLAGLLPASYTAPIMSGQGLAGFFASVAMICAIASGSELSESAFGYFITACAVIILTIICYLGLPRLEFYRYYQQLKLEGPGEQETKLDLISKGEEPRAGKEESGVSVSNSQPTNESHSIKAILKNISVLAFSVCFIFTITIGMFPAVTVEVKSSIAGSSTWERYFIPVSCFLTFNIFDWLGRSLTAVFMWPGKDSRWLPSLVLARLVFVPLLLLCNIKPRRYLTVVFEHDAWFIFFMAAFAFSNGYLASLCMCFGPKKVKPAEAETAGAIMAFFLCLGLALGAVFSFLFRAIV

The target in assay [6] is Voltage-dependent L-type calcium channel subunit alpha-1C (Rattus norvegicus, UniProt P22002). The format is functional.
Voltage-dependent L-type calcium channel subunit alpha-1C, sequence (P22002 whole entry): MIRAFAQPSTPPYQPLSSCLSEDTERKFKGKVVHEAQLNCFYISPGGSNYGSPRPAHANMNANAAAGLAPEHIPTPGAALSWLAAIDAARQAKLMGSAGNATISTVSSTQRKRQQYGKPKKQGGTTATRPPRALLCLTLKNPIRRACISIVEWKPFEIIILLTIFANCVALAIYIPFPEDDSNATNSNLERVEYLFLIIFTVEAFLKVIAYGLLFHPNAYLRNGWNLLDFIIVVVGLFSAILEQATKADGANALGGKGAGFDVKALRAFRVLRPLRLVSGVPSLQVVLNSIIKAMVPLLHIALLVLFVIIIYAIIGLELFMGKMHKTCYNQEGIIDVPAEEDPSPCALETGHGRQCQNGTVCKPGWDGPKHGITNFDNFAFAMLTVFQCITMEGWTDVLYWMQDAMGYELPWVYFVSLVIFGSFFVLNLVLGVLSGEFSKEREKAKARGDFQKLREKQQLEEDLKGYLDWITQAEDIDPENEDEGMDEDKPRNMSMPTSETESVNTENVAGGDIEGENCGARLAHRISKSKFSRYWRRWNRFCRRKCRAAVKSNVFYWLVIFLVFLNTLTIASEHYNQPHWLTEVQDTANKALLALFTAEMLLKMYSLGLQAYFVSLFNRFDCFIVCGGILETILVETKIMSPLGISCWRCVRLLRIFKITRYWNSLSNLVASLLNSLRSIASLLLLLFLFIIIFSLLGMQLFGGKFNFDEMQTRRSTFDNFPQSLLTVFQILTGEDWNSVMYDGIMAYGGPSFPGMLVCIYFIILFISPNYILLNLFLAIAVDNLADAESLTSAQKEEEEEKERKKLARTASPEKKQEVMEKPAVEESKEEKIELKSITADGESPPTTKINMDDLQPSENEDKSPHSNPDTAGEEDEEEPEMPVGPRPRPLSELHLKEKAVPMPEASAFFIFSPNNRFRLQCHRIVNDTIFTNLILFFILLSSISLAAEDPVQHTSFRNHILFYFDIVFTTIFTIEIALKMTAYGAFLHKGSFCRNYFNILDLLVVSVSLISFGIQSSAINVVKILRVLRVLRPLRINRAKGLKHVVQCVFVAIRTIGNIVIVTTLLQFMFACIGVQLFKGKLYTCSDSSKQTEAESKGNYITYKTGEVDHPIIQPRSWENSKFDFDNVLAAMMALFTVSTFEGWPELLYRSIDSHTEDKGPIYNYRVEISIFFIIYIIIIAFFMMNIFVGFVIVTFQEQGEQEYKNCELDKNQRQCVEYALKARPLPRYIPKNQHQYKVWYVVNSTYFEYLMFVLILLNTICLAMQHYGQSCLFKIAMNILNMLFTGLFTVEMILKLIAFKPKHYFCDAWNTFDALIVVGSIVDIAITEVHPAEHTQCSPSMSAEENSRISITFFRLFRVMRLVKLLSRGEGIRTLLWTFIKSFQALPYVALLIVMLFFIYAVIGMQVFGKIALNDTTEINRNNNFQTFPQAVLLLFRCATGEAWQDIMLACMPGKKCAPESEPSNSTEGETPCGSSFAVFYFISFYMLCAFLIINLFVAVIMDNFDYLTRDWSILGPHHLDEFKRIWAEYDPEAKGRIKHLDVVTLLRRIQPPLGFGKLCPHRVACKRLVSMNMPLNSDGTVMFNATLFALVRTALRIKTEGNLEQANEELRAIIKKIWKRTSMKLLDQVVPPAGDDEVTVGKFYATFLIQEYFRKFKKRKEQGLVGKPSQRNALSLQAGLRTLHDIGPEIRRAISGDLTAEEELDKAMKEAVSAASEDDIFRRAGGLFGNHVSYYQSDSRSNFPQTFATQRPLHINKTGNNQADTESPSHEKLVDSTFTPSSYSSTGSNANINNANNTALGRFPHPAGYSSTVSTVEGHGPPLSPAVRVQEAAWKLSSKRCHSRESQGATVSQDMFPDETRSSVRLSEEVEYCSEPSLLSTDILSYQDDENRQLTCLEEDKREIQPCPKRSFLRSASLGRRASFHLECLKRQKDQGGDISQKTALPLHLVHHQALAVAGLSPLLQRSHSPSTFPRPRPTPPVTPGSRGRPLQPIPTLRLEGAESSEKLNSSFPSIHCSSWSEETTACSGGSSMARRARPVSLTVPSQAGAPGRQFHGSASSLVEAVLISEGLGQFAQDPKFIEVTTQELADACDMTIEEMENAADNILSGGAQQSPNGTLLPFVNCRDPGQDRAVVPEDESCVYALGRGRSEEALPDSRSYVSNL
Assay [7] concerns the target Growth hormone secretagogue receptor type 1 (Homo sapiens, UniProt Q92847).

Each structure is given as a SMILES string. Where only a bound is given, the exact number is not on record here.

AC50 data for 14 compounds are collected here from ChEMBL document CHEMBL5291721, “A preclinical secondary pharmacology resource illuminates target-adverse drug reaction associations of marketed drugs” (Nat Commun, 2023).
Note: assay procedure not described here.

Beta-1 adrenergic receptor, sequence (P08588 whole entry): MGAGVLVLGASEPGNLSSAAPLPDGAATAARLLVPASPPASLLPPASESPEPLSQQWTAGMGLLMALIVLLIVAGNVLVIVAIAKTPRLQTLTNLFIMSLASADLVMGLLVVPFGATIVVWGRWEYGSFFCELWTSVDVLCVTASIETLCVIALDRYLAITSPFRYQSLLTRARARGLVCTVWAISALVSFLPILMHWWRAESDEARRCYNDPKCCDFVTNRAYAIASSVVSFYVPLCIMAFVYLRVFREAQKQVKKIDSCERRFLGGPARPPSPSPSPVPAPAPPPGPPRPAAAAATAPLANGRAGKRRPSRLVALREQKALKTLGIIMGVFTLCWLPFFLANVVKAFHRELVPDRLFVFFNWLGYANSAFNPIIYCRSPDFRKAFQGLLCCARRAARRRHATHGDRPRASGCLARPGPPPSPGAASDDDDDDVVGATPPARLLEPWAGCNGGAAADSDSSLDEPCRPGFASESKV
Growth hormone secretagogue receptor type 1, sequence (Q92847 whole entry): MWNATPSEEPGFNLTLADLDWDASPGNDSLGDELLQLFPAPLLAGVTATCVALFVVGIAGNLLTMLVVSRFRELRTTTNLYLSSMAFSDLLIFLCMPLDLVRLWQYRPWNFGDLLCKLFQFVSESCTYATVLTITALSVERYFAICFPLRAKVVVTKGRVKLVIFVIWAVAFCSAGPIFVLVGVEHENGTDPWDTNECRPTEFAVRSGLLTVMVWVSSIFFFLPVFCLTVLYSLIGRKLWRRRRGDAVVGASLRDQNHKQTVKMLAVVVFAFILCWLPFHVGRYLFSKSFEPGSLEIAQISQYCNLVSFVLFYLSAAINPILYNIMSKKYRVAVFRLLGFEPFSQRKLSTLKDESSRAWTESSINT
Motilin receptor, sequence (O43193 whole entry): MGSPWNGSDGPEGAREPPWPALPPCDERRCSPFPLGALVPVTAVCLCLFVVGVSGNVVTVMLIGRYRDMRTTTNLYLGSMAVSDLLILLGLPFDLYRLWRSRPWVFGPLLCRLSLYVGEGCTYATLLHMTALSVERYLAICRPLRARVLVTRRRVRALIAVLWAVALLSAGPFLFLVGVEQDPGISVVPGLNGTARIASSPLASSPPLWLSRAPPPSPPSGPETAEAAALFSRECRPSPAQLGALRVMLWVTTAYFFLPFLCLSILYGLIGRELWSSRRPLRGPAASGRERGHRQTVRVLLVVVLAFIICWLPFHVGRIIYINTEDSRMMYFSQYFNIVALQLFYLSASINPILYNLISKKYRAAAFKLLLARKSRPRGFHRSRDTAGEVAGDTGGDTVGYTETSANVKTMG
Beta-2 adrenergic receptor, sequence (P07550 whole entry): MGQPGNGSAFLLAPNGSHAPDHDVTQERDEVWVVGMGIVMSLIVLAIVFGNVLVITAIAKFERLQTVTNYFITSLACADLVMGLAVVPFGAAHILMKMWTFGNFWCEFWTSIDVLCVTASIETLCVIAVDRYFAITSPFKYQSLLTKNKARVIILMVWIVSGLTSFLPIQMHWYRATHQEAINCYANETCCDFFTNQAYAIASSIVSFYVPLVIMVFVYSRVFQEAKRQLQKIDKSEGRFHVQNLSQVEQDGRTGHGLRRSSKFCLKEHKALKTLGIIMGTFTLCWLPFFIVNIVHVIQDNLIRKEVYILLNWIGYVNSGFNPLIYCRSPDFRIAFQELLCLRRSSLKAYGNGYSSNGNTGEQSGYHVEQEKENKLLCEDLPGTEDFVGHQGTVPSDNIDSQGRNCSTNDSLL
5-hydroxytryptamine receptor 2A, sequence (P28223 whole entry): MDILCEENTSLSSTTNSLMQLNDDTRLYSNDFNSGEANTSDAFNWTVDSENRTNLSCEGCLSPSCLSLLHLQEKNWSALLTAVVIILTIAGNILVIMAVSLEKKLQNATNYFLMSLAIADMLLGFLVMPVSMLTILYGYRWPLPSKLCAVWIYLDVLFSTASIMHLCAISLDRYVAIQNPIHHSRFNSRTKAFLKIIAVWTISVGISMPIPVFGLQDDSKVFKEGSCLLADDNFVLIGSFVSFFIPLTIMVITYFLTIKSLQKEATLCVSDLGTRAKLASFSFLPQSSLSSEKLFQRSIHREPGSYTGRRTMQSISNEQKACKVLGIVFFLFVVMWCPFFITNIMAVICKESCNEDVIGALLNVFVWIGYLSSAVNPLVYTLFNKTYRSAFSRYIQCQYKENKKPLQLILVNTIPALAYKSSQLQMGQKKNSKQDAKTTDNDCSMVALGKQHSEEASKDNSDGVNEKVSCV

The AC50 is the concentration at which the activity in the assay is half-maximal. On to `CO/N=C(\C(=O)N[C@@H]1C(=O)N2C(C(=O)OCOC(=O)C(C)(C)C)=C(C)CS[C@H]12)c1csc(N)n1`, for which the concentration at half-maximal activity (AC50) in assay [1], in assay [2] and in assay [3] was over 30 µM in each case.
Take `O=C(Cn1ccnc1[N+](=O)[O-])NCc1ccccc1` [BENZNIDAZOLE]: the half-maximal activity concentration (AC50) (in [4]; in [1]; at Glucocorticoid receptor; at Motilin receptor; at Estrogen receptor; in [5]) was over 30 µM in each case. Moreover, the AC50 in assay [3], in assay [6] and in [7] was over 30 µM in each case.
As to `COCC1=C(C(=O)OC(C)OC(=O)OC(C)C)N2C(=O)[C@@H](NC(=O)/C(=N\OC)c3csc(N)n3)[C@H]2SC1` (some centres undefined) [CEFPODOXIME PROXETIL], the half-maximal activity concentration (AC50) in assay [1], in assay [2] and in assay [3] was over 30 µM each time.
For `NS(=O)(=O)c1cc2c(cc1Cl)NC(CC1CCCC1)NS2(=O)=O` (centres undefined) [CYCLOPENTHIAZIDE], the AC50 in [1], in assay [2] and in [3] was over 30 µM throughout.
In the case of `Nc1nc(-n2cc(C(=O)O)c(=O)c3cc(F)c(N4CC(O)C4)c(Cl)c32)c(F)cc1F` [DELAFLOXACIN], the AC50 in [3] is over 30 µM.
Compound `CC1=NN(c2ccccc2)C(=O)C1` [EDARAVONE] displayed an AC50 in [3] of over 30 µM.
Turning to `N/N=c1/cc2c(n[nH]1)CCN(C(=O)c1ccccc1)C2` [ENDRALAZINE], the AC50 in assay [1], in assay [2] and in [3] was over 30 µM throughout.
In assay [3], `CC(C)=CCC1C(=O)N(c2ccccc2)N(c2ccccc2)C1=O` [FEPRAZONE] came in with a concentration at half-maximal activity (AC50) of over 30 µM.
In the case of `CC(C(O)c1ccc(O)cc1)N1CCC(Cc2ccccc2)CC1` (centres undefined) [IFENPRODIL], the AC50 in assay [4] is 23 µM; in assay [1], over 30 µM; on Glucocorticoid receptor, over 30 µM; on Motilin receptor, over 30 µM; in assay [2] it was over 30 µM; on Estrogen receptor it was over 30 µM. In addition, the AC50 in [6] and in [7] was over 30 µM throughout.
Consider `CN(CCCN1c2ccccc2CCc2ccccc21)CC(=O)c1ccc(Cl)cc1` [LOFEPRAMINE], for which the concentration at half-maximal activity (AC50) (in assay [4]; in assay [1]; on Glucocorticoid receptor; at Motilin receptor; in assay [2]; on Estrogen receptor) was over 30 µM each time. The concentration at half-maximal activity (AC50) in assay [5] was over 30 µM; in assay [6] it was 2.4 µM; in assay [7], 25 µM.
As for `CN1C(=O)N(C)C2C1N(C)C(=O)N2C` (centres undefined) [MEBICAR], the AC50 in assay [1], in assay [2] and in [3] was over 30 µM in each case.
The compound `Cn1cc[nH]c1=S` [METHIMAZOLE] showed a concentration at half-maximal activity (AC50) in assay [3] of over 30 µM.
Still for that read-out and setting: under `NC(=O)c1cccc2cn(-c3ccc([C@@H]4CCCNC4)cc3)nc12` [NIRAPARIB] stands 29.4 µM.
`Nc1ccc(/N=N/c2ccccc2)c(N)n1` [PHENAZOPYRIDINE]: the values for the AC50 in assay [1], in [2] and in [3] were over 30 µM, over 30 µM and 23.4 µM, respectively.
